# Test results published in patent US20250108038A1 (priority 2023, published 2025).
# “Also recorded” adds a separate entry of the source.
# Tests used:
# [1] = molecular target: BSEP (Homo sapiens, UniProt O95342); assay: Vesicular transport inhibition assay, BSEP (taurocholate)
# Experimental: Vesicular transport assays were performed with inside-out membrane vesicles prepared from cells overexpressing human ABC (efflux) transporters. The transporters were expressed by SOLVO Biotechnology in mammalian (HEK293) cells. The mammalian cells were stably transfected with the ABC transporter of interest. The assays were conducted according to the actual SOLVO VT assay protocols (PR-ASY-VT-General Protocol for Vesicular Transport Inhibition Assays).
# The membrane vesicle suspension was mixed with the ice-cold transport buffer, then the probe substrate solution was added. […] (for BCRP and MDR1). […] Reactions were quenched by the addition of 200 μL of ice-cold washing buffer and immediate filtration via glass fiber filters mounted to a 96-well plate (filter plate). The filters were washed (5×200 μL of ice-cold washing buffer), dried and the amount of substrate inside the filtered vesicles was determined by liquid scintillation counting.
# Incubation with AMP provided background activity values for all data points.
# [2] = molecular target: T1, OATP1B3 (Homo sapiens, UniProt Q9NPD5); assay: Uptake transporter inhibition assay, OATP1B3 (CCK-8); conditions: for Relative transporter specific accumulation: CCK-8, Table 120
# T1 sequence (Q9NPD5 1-702): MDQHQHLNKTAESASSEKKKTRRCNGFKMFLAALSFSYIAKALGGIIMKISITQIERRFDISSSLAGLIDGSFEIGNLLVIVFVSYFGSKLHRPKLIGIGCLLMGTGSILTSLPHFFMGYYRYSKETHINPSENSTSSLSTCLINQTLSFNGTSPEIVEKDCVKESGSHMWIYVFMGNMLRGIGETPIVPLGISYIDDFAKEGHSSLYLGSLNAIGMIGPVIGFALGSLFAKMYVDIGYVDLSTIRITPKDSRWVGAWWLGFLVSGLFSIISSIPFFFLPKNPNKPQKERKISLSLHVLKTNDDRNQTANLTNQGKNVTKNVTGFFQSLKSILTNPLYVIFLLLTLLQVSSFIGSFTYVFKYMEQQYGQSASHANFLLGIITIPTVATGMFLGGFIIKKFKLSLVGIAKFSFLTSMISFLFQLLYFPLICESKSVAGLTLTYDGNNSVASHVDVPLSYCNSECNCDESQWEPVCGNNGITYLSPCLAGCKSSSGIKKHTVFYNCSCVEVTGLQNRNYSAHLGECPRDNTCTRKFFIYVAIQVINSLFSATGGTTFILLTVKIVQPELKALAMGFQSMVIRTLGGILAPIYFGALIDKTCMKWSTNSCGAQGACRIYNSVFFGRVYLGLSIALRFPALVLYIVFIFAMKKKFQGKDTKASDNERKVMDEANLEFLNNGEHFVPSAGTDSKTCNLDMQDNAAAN
# Experimental: (§1) Uptake experiments were performed using HEK293 cells stably expressing the respective uptake transporters. The assays were conducted according to the actual SOLVO uptake transporter assay protocols (PR-ASY-UPT-General Protocol for Uptake Transporter Inhibition Assays).
# (§2) Cells were cultured at 37° C. in a humidified atmosphere containing 5% CO2 and were plated onto standard 96-well tissue culture plates.
# (§3) Before the experiment, the medium was removed, and the cells were washed twice with 100 μL of pre-warmed (37° C.) assay buffer listed in Table 15. The cells were pre-incubated at 37° C. for 30 minutes in assay buffer containing the test article at appropriate concentrations (Table 16), appropriate solvents for solvent controls and the reference inhibitor for reference inhibitor wells. After the pre-incubation step solutions were removed. Uptake experiments were performed at 37° C. in 50 μL of assay buffer containing the probe substrate and the test article or solvent and controls.
# (§4) After the experiment, cells were washed twice with 100 μL of appropriate cold buffer and lysed with 150 μL scintillation cocktail. Radiolabeled probe substrate transport was determined by liquid scintillation counting.
# (§5) Uptake of the probe substrate in control cells provided background activity values for all data points.
# [3] = molecular target: T2, OAT1 (Homo sapiens, UniProt Q4U2R8); assay: Uptake transporter inhibition assay, OAT1 (tenofovir)
# T2 sequence (Q4U2R8 1-563): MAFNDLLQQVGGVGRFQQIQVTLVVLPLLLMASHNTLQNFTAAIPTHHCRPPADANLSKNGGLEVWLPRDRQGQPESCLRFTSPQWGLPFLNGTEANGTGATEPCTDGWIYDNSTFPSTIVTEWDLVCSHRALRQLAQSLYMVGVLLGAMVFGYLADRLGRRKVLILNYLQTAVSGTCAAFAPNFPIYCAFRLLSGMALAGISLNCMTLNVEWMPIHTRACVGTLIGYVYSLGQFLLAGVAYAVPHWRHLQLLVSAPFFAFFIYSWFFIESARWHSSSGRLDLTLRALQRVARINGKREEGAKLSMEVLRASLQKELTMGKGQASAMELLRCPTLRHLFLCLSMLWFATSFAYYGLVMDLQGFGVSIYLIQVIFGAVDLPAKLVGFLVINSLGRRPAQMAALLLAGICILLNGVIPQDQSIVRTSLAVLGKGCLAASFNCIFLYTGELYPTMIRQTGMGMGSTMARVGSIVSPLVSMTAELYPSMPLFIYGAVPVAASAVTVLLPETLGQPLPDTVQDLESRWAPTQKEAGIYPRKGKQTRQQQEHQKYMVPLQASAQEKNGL
# Experimental: as §1, §2, §3, §4, §5
# [4] = tested on: orexin/tTA; Tet-O diphtheria toxin A mice (DTA mice); assay type: in vivo, mouse; conditions: 6 h after dosing at ZT12
# Chain of BSEP (O95342 whole entry): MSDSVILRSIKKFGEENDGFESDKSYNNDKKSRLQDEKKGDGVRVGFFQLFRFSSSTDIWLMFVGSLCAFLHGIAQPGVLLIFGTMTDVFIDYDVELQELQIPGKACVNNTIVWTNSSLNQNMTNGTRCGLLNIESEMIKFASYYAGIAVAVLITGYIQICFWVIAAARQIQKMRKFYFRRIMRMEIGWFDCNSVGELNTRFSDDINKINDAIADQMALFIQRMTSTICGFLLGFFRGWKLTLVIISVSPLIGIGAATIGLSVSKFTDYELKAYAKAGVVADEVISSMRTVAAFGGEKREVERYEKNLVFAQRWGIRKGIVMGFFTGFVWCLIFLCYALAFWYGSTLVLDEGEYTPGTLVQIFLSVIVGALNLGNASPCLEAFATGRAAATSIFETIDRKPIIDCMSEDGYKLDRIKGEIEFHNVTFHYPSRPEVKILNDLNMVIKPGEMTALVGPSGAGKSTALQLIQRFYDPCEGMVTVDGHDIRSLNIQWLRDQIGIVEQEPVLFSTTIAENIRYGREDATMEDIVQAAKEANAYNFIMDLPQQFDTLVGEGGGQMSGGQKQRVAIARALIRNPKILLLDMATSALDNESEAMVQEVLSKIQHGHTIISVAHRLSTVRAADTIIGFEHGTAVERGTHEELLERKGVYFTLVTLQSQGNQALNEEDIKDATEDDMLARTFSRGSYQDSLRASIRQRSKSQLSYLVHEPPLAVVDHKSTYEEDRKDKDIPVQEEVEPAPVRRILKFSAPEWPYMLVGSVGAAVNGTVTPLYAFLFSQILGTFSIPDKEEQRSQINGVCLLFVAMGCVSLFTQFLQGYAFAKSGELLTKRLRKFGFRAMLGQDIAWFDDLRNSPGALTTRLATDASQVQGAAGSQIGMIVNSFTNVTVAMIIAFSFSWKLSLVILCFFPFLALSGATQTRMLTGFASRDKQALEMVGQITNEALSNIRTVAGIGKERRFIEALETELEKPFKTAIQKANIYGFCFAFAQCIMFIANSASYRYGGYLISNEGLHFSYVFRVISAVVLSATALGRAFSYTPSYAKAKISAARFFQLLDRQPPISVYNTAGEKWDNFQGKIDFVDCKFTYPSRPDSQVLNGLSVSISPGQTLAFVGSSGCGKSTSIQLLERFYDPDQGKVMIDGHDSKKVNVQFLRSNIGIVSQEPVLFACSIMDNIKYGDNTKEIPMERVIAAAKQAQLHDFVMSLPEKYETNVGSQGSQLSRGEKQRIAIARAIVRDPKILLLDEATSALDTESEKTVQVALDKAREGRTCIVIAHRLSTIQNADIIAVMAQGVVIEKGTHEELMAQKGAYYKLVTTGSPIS
compound,measurement,setting,value
"OC1(c2ccc(Cl)cc2)c2ccccc2C2=NCCN21 (stereo not shown) [Compound A, 5-(4-chlorophenyl)-2,3-dihydroimidazo[1,2-b]isoindol-5-ol, reference compound]",maximum inhibition of BSEP-mediated taurocholate accumulation,"[1]; 2-concentration assay, up to 100 μM (Compound A up to 35 μM)",did not inhibit; also recorded: not an in vitro inhibitor
same,Maximum % inhibition,"[1]; BSEP, inside-out membrane vesicles, TC (0.2 μM), NIO: No inhibition observed",NIO
same,inhibition at 35 μM,[1]; human,2%
same,Relative transporter specific accumulation,[2]; 3.00 μM nominal,92.81 ± 3.95 % of control
same,Relative transporter specific accumulation,[2]; 30.00 μM nominal,90.63 ± 4.66 % of control
same,maximum inhibition of OATP1B3-mediated CCK-8 accumulation,"[2]; 2-concentration assay, up to 100 μM (Compound A up to 30 μM)",did not inhibited; also recorded: not an in vitro inhibitor
same,Maximum % inhibition,"[2]; OATP1B3, HEK293 cells, CCK-8 (1 μM), NIO: no inhibition observed",NIO
same,inhibition at 3 μM,[2]; human,7%
same,inhibition at 30 μM,[2]; human,9%
same,Relative transporter specific accumulation,[3]; 3.00 μM nominal,99.68 ± 2.39 % of control
same,Transporter specific accumulation,[3]; 3.00 μM nominal,"2,392.67 ± 13.09 cpm"
same,Relative transporter specific accumulation,[3]; 30.00 μM nominal,88.39 ± 4.23 % of control
same,Transporter specific accumulation,[3]; 30.00 μM nominal,"2,121.67 ± 88.79 cpm"
same,Maximum % inhibition,"[3]; OAT1, HEK293 cells, tenofovir (5 μM), NIO: no inhibition observed",NIO
same,inhibition at 3 μM,[3]; human,0%
same,inhibition at 30 μM,[3]; human,12%
same,maximum inhibition of OAT1-mediated tenofovir accumulation,[3]; up to 100 μM (Compound A up to 30 μM),did not inhibit; also recorded: not an in vitro inhibitor
COCCOC1(c2ccc(Cl)cc2)c2ccccc2C2=NCCN21 (stereo not shown) [Compound I-4],REM:NR ratios (effect),[4],decreased REM:NR ratios
same,"W consolidation (W bout duration, number of W bouts)",[4],Compound I-4 at 3 mg/kg consolidated W
same,body temperature (Tb),[4],No significant effects on Tb were found
same,latency to REM (effect),[4],Compound I-4 at 3 mg/kg significantly (p<0.05) increased the latency to REM
same,locomotor activity (LMA),[4],increased significantly overall
same,total W or NREM time,[4],without any significant effects on total W or NREM
same,cataplexy (C) time,"[4]; Compound I-19 0.3, 1, 3 mg/kg i.p., Compound I-4 0.3, 1, 3 mg/kg p.o., Des 5 mg/kg p.o.",significantly (p<0.05) decreased following Compound I-4 at the two highest doses (1 and 3 mg/kg)
same,REM time,[4]; same doses,significantly (p<0.05) decreased following Compound I-4 at the two highest doses (1 and 3 mg/kg)
